Patent US12157741B2, “Macrocyclic inhibitors of DYRK1A” (DANA-FARBER CANCER INSTITUTE, INC., priority 2018, dated 2024)
Where two headings read alike, the source gives them in different places.

What was measured:
Type in all cases: binding
[1] = biological target: T1, various enzymes (Homo sapiens, UniProt P36888, D835V, form not given)
T1 construct: other: FLT3(ITD, D835V); 1 uM; other: compound 1 uM
Experimental: (§1) Ambit profiling was conducted in accordance with the manufacturer's instructions.

[2] = biological target: various enzymes (Homo sapiens, UniProt O43353); details: compound 1 uM
Experimental: as §1

[3] = biological target: various enzymes (Homo sapiens, UniProt P49841); details: compound 1 uM
Experimental: as §1

[4] = biological target: various enzymes (Homo sapiens, UniProt P30291); details: compound 1 uM
Experimental: as §1

[5] = biological target: various enzymes (Homo sapiens, UniProt Q8NEV4); details: compound 1 uM
Experimental: as §1

[6] = biological target: various enzymes (Homo sapiens, UniProt Q9HAZ1); details: compound 1 uM
Experimental: as §1

[7] = biological target: various enzymes (Homo sapiens, UniProt P06239); details: compound 1 uM
Experimental: as §1

[8] = biological target: various enzymes (Homo sapiens, UniProt Q8IU85); details: compound 1 uM
Experimental: as §1

[9] = biological target: various enzymes (Homo sapiens, UniProt Q9Y4K4); details: compound 1 uM
Experimental: as §1

[10] = biological target: various enzymes (Homo sapiens, UniProt Q15139); details: compound 1 uM
Experimental: as §1

[11] = biological target: various enzymes (Homo sapiens, UniProt P53350); details: compound 1 uM
Experimental: as §1

[12] = biological target: various enzymes (Homo sapiens, UniProt Q9NRH2); details: compound 1 uM
Experimental: as §1

[13] = biological target: various enzymes (Homo sapiens, UniProt Q9HCP0); details: compound 1 uM
Experimental: as §1

[14] = biological target: various enzymes (Homo sapiens, UniProt O94768); details: compound 1 uM
Experimental: as §1

[15] = biological target: various enzymes (Homo sapiens, UniProt Q9UKE5); details: compound 1 uM
Experimental: as §1

[16] = biological target: various enzymes (Homo sapiens, UniProt P51817); details: compound 1 uM
Experimental: as §1

[17] = biological target: various enzymes (Homo sapiens, UniProt P15056, V600E)
Experimental: as §1

[18] = biological target: various enzymes (Homo sapiens, UniProt Q8TDC3); details: compound 1 uM
Experimental: as §1

[19] = biological target: various enzymes (Homo sapiens, UniProt Q8TD08); details: compound 1 uM
Experimental: as §1

[20] = biological target: various enzymes (Homo sapiens, UniProt Q02750); details: compound 1 uM
Experimental: as §1

[21] = biological target: various enzymes (Homo sapiens, UniProt P57059); details: compound 1 uM
Experimental: as §1

[22] = biological target: various enzymes (Homo sapiens, UniProt Q9P1W9); details: compound 1 uM
Experimental: as §1

[23] = biological target: various enzymes (Homo sapiens, UniProt P31751); details: compound 1 uM
Experimental: as §1

[24] = biological target: various enzymes (Homo sapiens, UniProt P15056); details: compound 1 uM
Experimental: as §1

[25] = biological target: various enzymes (Homo sapiens, UniProt O15530); details: compound 1 uM
Experimental: as §1

[26] = biological target: various enzymes (Homo sapiens, UniProt Q06187); details: compound 1 uM
Experimental: as §1

[27] = biological target: various enzymes (Homo sapiens, UniProt Q9BYT3); details: compound 1 uM
Experimental: as §1

[28] = biological target: T2, various enzymes (Homo sapiens, UniProt Q6PHR2); details: compound 1 uM
T2 sequence (Q6PHR2 1-472): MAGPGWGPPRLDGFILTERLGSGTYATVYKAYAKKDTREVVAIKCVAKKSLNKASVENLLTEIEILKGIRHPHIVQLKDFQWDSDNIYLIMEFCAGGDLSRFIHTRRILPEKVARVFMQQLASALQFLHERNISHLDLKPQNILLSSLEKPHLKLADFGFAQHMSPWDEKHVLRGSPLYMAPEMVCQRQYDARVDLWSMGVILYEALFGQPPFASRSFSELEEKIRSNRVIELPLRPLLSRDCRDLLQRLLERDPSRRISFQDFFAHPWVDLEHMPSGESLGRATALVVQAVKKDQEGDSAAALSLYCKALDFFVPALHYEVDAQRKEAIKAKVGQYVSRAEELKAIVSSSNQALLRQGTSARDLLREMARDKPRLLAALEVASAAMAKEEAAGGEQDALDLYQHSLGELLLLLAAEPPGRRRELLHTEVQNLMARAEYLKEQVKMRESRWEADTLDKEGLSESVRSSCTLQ
Experimental: as §1

[29] = biological target: various enzymes (Homo sapiens, UniProt P54760); details: compound 1 uM
Experimental: as §1

[30] = biological target: various enzymes (Plasmodium falciparum, UniProt P62344)
Experimental: as §1

[31] = biological target: various enzymes (Homo sapiens, UniProt P42680); details: compound 1 uM
Experimental: as §1

[32] = biological target: various enzymes (Homo sapiens, UniProt Q9UL54); details: compound 1 uM
Experimental: as §1

[33] = biological target: various enzymes (Homo sapiens, UniProt P48736); details: compound 1 uM
Experimental: as §1

[34] = biological target: various enzymes (Homo sapiens, UniProt P27448); details: compound 1 uM
Experimental: as §1

[35] = biological target: various enzymes (Homo sapiens, UniProt Q08345); details: compound 1 uM
Experimental: as §1

[36] = biological target: various enzymes (Homo sapiens, UniProt Q9BYP7); details: compound 1 uM
Experimental: as §1

[37] = biological target: various enzymes (Homo sapiens, UniProt P21802); details: compound 1 uM
Experimental: as §1

various enzymes (Homo sapiens, UniProt P30291), sequence (P30291 whole entry): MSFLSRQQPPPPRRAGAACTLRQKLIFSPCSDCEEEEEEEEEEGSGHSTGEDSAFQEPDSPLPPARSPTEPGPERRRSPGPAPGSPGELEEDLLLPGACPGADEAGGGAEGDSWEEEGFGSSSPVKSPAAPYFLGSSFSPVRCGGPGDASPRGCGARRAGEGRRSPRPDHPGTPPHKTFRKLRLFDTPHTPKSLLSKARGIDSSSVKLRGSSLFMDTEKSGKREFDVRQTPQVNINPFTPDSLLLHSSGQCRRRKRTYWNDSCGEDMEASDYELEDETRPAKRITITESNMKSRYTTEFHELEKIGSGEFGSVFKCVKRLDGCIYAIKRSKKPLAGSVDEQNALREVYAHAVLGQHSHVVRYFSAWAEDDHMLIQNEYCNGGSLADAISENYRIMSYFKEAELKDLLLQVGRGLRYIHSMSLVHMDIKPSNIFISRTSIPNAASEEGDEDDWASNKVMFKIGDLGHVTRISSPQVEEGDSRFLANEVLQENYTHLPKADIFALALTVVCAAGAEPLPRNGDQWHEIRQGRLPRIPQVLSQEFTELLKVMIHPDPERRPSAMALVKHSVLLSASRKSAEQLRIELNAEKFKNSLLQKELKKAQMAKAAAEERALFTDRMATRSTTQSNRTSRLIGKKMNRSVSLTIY
various enzymes (Homo sapiens, UniProt Q9UKE5), sequence (Q9UKE5 whole entry): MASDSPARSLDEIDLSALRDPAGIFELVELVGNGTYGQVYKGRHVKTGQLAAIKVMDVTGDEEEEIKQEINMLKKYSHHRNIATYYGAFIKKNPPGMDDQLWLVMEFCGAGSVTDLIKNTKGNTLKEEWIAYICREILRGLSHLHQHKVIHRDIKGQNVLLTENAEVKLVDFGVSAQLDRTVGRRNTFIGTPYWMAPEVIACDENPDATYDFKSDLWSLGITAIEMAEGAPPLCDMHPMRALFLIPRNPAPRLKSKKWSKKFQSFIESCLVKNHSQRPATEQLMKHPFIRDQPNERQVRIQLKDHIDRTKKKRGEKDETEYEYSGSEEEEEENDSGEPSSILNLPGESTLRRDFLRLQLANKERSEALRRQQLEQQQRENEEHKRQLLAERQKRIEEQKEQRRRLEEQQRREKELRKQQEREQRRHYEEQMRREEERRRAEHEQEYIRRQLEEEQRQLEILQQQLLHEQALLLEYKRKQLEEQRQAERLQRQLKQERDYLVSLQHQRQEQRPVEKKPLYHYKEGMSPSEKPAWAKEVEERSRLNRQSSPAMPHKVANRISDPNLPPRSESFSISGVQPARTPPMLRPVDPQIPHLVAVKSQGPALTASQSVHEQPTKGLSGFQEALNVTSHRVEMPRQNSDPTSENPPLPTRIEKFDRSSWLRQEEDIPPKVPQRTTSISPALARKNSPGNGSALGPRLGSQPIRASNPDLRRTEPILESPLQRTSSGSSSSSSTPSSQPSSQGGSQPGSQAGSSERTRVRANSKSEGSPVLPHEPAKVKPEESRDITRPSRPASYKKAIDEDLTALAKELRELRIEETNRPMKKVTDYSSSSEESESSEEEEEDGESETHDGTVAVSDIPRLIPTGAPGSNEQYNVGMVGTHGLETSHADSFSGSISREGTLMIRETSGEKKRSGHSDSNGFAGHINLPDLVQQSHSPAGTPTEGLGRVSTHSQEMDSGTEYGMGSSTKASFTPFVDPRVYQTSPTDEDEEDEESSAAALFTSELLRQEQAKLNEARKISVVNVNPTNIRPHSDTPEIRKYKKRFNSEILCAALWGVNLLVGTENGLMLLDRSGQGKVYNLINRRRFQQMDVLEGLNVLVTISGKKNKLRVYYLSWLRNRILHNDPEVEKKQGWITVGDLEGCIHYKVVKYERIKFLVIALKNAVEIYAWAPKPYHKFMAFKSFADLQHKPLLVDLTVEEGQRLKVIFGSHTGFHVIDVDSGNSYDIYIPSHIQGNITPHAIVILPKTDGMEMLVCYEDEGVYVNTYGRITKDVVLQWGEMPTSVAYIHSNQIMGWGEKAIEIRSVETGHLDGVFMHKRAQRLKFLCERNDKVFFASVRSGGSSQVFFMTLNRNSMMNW
various enzymes (Homo sapiens, UniProt P21802), sequence (P21802 22-821): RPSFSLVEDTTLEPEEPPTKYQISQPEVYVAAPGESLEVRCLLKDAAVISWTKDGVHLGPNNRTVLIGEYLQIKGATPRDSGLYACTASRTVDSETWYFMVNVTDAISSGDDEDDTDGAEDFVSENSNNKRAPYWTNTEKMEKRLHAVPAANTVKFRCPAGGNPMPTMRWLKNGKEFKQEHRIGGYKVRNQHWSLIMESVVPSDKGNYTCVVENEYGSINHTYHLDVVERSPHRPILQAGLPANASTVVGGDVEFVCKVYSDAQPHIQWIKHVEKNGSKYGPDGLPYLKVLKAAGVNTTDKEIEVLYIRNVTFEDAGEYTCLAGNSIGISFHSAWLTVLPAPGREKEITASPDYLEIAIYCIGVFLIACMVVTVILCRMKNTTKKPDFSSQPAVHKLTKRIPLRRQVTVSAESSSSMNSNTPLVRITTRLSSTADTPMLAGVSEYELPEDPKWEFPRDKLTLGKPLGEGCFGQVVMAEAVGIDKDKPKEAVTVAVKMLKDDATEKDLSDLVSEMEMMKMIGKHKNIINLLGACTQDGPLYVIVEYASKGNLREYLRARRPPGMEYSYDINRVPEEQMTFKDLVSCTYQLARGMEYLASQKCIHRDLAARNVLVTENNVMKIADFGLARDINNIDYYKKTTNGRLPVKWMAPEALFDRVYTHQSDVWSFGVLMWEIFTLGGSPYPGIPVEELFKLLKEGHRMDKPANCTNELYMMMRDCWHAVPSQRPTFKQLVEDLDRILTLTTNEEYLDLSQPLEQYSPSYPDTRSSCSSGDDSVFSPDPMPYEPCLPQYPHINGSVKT
various enzymes (Homo sapiens, UniProt Q06187), sequence (Q06187 whole entry): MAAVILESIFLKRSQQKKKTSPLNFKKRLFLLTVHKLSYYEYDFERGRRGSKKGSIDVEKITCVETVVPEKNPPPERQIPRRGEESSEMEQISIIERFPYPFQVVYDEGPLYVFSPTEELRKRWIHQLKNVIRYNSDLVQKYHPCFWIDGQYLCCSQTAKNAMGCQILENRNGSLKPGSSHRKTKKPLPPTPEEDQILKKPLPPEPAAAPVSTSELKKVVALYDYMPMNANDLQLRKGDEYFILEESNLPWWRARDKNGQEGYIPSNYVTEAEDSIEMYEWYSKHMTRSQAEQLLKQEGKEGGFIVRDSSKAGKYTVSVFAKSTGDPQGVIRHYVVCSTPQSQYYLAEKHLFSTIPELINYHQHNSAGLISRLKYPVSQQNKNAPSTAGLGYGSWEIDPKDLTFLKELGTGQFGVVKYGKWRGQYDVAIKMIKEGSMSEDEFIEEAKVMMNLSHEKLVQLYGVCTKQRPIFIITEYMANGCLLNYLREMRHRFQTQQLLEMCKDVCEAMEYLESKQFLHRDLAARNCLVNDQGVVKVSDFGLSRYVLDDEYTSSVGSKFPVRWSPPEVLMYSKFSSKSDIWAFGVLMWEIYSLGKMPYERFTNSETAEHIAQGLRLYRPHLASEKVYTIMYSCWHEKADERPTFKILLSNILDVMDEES
various enzymes (Homo sapiens, UniProt P48736), sequence (P48736 whole entry): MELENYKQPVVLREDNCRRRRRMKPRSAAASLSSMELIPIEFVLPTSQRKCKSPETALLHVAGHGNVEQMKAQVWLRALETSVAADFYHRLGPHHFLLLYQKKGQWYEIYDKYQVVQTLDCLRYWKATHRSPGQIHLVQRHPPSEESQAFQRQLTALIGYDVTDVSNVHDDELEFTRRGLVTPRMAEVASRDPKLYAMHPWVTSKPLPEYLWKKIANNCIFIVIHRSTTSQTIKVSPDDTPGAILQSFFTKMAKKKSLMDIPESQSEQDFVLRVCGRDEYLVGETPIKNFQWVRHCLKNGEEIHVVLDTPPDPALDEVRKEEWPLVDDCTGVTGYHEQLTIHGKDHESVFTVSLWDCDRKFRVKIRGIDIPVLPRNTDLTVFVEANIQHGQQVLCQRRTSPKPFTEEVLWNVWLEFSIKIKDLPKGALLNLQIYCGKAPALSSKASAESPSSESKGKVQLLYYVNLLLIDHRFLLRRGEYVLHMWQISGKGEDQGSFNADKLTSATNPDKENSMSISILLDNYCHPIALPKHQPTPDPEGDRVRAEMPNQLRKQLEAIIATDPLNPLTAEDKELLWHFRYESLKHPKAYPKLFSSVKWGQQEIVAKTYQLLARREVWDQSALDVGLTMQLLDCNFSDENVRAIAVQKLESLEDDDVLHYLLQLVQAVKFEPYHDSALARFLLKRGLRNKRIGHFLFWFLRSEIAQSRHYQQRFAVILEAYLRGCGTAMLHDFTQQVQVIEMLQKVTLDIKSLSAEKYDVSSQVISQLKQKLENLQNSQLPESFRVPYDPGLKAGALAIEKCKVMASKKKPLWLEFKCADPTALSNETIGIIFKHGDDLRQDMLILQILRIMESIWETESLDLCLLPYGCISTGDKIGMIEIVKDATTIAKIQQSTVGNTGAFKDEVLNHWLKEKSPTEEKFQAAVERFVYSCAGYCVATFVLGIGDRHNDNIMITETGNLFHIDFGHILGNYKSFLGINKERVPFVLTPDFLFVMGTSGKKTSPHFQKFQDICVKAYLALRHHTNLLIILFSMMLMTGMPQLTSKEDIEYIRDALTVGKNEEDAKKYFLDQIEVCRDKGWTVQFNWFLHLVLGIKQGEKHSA
various enzymes (Homo sapiens, UniProt P31751), sequence (P31751 whole entry): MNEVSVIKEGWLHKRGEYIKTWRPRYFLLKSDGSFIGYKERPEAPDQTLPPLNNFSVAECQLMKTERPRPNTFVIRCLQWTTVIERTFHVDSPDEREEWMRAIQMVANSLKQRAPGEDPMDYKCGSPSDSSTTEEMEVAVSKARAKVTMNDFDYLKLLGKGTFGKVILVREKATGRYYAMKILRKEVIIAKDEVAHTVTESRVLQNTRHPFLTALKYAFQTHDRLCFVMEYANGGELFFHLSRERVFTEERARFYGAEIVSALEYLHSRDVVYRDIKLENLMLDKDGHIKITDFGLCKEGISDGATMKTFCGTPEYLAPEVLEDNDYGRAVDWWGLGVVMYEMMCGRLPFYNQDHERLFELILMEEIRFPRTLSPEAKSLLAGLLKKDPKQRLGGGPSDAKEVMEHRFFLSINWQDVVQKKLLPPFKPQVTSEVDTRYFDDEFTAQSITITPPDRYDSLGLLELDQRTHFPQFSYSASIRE

Structure (SMILES)	Ambit profiling: RIPK2 [2]	Ambit profiling: GSK3B [3]	Ambit profiling: WEE1 [4]	Ambit profiling: MYO3A [5]	Ambit profiling: CLK4 [6]	Ambit profiling: LCK [7]	Ambit profiling: CAMK1D [8]	Ambit profiling: MAP4K5 [9]	Ambit profiling: PRKD1 [10]	Ambit profiling: PLK1 [11]	Ambit profiling: SNRK [12]	Ambit profiling: CSNK1G1 [13]	Ambit profiling: DRAK2 [14]	Ambit profiling: TNIK [15]	Ambit profiling: PRKX [16]	Ambit profiling: BRSK1 [18]	Ambit profiling: ERK8 [19]	Ambit profiling: MEK1 [20]	Ambit profiling: SIK [21]	Ambit profiling: PIM2 [22]	further results
COc1c2c(nn1C)CN(C(C)C)C(=O)CCCn1cc(c(C(F)(F)F)n1)-c1c[nH]c3ncc-2cc13 [Compound 50, (Z)-5-isopropyl-35-methoxy-31-methyl-13-(trifluoromethyl)-11H,21H,31H-5-aza-2(3,5)-pyrrolo[2,3-b]pyridina-1(4,1),3(4,3)-dipyrazolacyclononaphan-6-one]	11	90	38	11	17	1.9	38	4.1	33	100	86	81	98	13	100	89	18	12	57	100	Ambit profiling: FLT3(ITD, D835V) [1]: 0.55; Ambit profiling: BRAF(V600E) [17]: 93; Ambit profiling: AKT2 [23]: 86; Ambit profiling: BRAF [24]: 87; Ambit profiling: PDPK1 [25]: 100; Ambit profiling: BTK [26]: 56; Ambit profiling: STK33 [27]: 23; Ambit profiling: ULK3 [28]: 73; Ambit profiling: EPHB4 [29]: 40; Ambit profiling: PFCDPK1(P. falciparum) [30]: 24; Ambit profiling: TEC [31]: 32; Ambit profiling: TAOK2 [32]: 69; Ambit profiling: PIK3CG [33]: 54; Ambit profiling: MARK3 [34]: 43; Ambit profiling: DDR1 [35]: 0.35; Ambit profiling: WNK3 [36]: 100; Ambit profiling: FGFR2 [37]: 11
CC(C)N1Cc2nn(C)cc2-c2cnc3[nH]cc(c3c2)-c2cn(nc2C(F)(F)F)CCCC1=O [Compound 45, (Z)-5-isopropyl-31-methyl-13-(trifluoromethyl)-11H,21H,31H-5-aza-2(3,5)-pyrrolo[2,3-b]pyridina-1(4,1),3(4,3)-dipyrazolacyclononaphan-6-one]	12	24	73	23	19	0.65	60	1.2	36	93	100	100	100	5.6	100	100	6.1	17	74	100	Ambit profiling: FLT3(ITD, D835V) ([1]; compound 1 uM): 0; Ambit profiling: BRAF(V600E) ([17]; compound 1 uM): 100; Ambit profiling: AKT2 [23]: 100; Ambit profiling: BRAF [24]: 100; Ambit profiling: PDPK1 [25]: 98; Ambit profiling: BTK [26]: 55; Ambit profiling: STK33 [27]: 71; Ambit profiling: ULK3 [28]: 30; Ambit profiling: EPHB4 [29]: 76; Ambit profiling: PFCDPK1(P. falciparum) ([30]; compound 1 uM): 2.8; Ambit profiling: TEC [31]: 97; Ambit profiling: TAOK2 [32]: 28; Ambit profiling: PIK3CG [33]: 94; Ambit profiling: MARK3 [34]: 32; Ambit profiling: DDR1 [35]: 0.15; Ambit profiling: WNK3 [36]: 100; Ambit profiling: FGFR2 [37]: 9.5
